# Key:
# Type in all cases: in vivo
# [1] = test system: Echinocloa crus-galli (ECHCG); assay: greenhouse post-emergence herbicidal test; conditions: scale from 0 to 100
# From the text: (§1) The culture containers used were plastic flowerpots containing loamy sand with approximately 3.0% of humus as the substrate. The seeds of the test plants were sown separately for each species.
# (§2) For the pre-emergence treatment, the active ingredients, which had been suspended or emulsified in water, were applied directly after sowing by means of finely distributing nozzles. The containers were irrigated gently to promote germination and growth and subsequently covered with transparent plastic hoods until the test plants had rooted. This cover caused uniform germination of the test plants, unless this had been impaired by the active ingredients. For the post-emergence treatment, the test plants were first grown to a height of 3 to 15 cm, depending on the plant habit, and only then treated with the active ingredients which had been suspended or emulsified in water. For this purpose, the test plants were either shown directly and grown in the same containers, or they were first grown separately as seedlings and transplanted into the test containers a few days prior to treatment.
# (§3) Depending on the species, the test plants were kept at 10-25° C. or 20-35° C., respectively. The test period extended over 2 to 4 weeks. During this time, the test plants were tended, and their response to the individual treatments was evaluated.
# (§4) Evaluation was carried out using a scale from 0 to 100. 100 means no emergence of the test plants, or complete destruction of at least the aerial moieties, and 0 means no damage, or normal course of growth. A good herbicidal activity is given at values of 70 to <90 and a very good herbicidal activity is given at values of 90 to 100.
# (§5) The test plants used in the greenhouse experiments were of the following species: […]
# [2] = test system: Fallopia convolvulus (POLCO); assay: greenhouse post-emergence herbicidal test; conditions: 0.32 kg/ha, scale from 0 to 100
# From the text: as §1, §2, §3, §4, §5
# Setaria viridis (SETVI) [3] = assay: greenhouse post-emergence herbicidal test; conditions: scale from 0 to 100
# From the text: as §1, §2, §3, §4, §5
# [4] = test system: Alopercurus myosuroides (ALOMY); assay: greenhouse pre-emergence herbicidal test; conditions: scale from 0 to 100
# From the text: as §1, §2, §3, §4, §5
# [5] = test system: Lolium multiflorum (LOLMU); assay: greenhouse pre-emergence herbicidal test; conditions: scale from 0 to 100
# From the text: as §1, §2, §3, §4, §5
# Setaria viridis (SETVI) [6] = assay: greenhouse pre-emergence herbicidal test; conditions: 0.250 kg/ha, scale from 0 to 100
# From the text: as §1, §2, §3, §4, §5
# [7] = test system: Abutilon theophrasti (ABUTH); assay: greenhouse post-emergence herbicidal test; conditions: 1.000 kg/ha, scale from 0 to 100
# From the text: as §1, §2, §3, §4, §5
# [8] = test system: Apera spica-venti (APESV); assay: greenhouse pre-emergence herbicidal test; conditions: scale from 0 to 100, read-out: herbicidal activity against APESV; for pest or weed control at 250 g/ha: 0.250 kg/ha; for pest or weed control at 500 g/ha: 0.500 kg/ha
# From the text: as §1, §2, §3, §4, §5
# Avena fatua (AVEFA) = assay: greenhouse post-emergence herbicidal test; conditions: for pest or weed control at 250 g/ha: 0.250 kg/ha; for pest or weed control at 500 g/ha: 0.500 kg/ha
# From the text: as §1, §2, §3, §4, §5
# [9] = test system: Abutilon theophrasti (ABUTH); assay: greenhouse pre-emergence herbicidal test; conditions: 0.500 kg/ha, scale from 0 to 100
# From the text: as §1, §2, §3, §4, §5
# [10] = test system: Echinocloa crus-galli (ECHCG); assay: greenhouse pre-emergence herbicidal test; conditions: 0.500 kg/ha, scale from 0 to 100
# From the text: as §1, §2, §3, §4, §5
# Setaria faberi (SETFA) = assay: greenhouse pre-emergence herbicidal test; conditions: scale from 0 to 100
# From the text: as §1, §2, §3, §4, §5
# [11] = test system: Alopercurus myosuroides (ALOMY); assay: greenhouse post-emergence herbicidal test; conditions: 0.125 kg/ha, scale from 0 to 100
# From the text: as §1, §2, §3, §4, §5
# [12] = test system: Lolium multiflorum (LOLMU); assay: greenhouse post-emergence herbicidal test; conditions: 0.125 kg/ha, scale from 0 to 100
# From the text: as §1, §2, §3, §4, §5
# [13] = test system: Amaranthus retroflexus (AMARE); assay: greenhouse post-emergence herbicidal test; conditions: 0.125 kg/ha, scale from 0 to 100
# From the text: as §1, §2, §3, §4, §5
# [14] = Avena fatua, scale from 0 to 100, read-out: herbicidal activity against AVEFA
smiles,measurement,setting,value
CC(C)OC(=O)C1C=CC(NC(=O)C2(C(=O)Nc3cc(F)cc(F)c3)CCO2)C1 (mixture of isomers) [I.4],herbicidal activity against ECHCG,[1]; 0.32 kg/ha,very good (a very good herbicidal activity is given at values of 90 to 100)
same,herbicidal activity against POLCO,[2],very good (a very good herbicidal activity is given at values of 90 to 100)
same,herbicidal activity against SETVI,Setaria viridis (SETVI) [3]; 0.32 kg/ha,very good (a very good herbicidal activity is given at values of 90 to 100)
COC(=O)CC(C)NC(=O)C1(C(=O)Nc2cc(Cl)cc(Cl)c2)C=CCO1 (mixture of isomers) [I.25],herbicidal activity against ALOMY,[4]; 0.0625 kg/ha,good (A good herbicidal activity is given at values of 70 to <90)
same,herbicidal activity against LOLMU,[5]; 0.0625 kg/ha,very good (a very good herbicidal activity is given at values of 90 to 100)
O=C([O-])C1C=CC(NC(=O)C2(C(=O)Nc3cc(Cl)cc(Cl)c3)C=CCO2)C1.[Na+] (mixture of isomers) [I.201],herbicidal activity against SETVI,Setaria viridis (SETVI) [6],good (A good herbicidal activity is given at values of 70 to <90)
COC(=O)C1C=CC(NC(=O)C2(C(=O)Nc3cc(Cl)cc(Cl)c3)OC2(C)C)C1 (mixture of isomers) [I.220],herbicidal activity against ECHCG,[1]; 0.500 kg/ha,good (A good herbicidal activity is given at values of 70 to <90)
Cn1nnnc1NC(=O)C1(C(=O)Nc2cc(F)c(F)c(F)c2)CCO1 (racemic) [I.5],herbicidal activity against LOLMU,[5]; 0.250 kg/ha,very good (a very good herbicidal activity is given at values of 90 to 100)
COC(=O)CC(C)NC(=O)C1(C(=O)Nc2cc(Cl)cc(Cl)c2)OCCO1 (racemic) [I.19],herbicidal activity against ABUTH,[7],good (A good herbicidal activity is given at values of 70 to <90)
"COC(=O)[C@@H]1C=C[C@H](NC(=O)C2(C(=O)Nc3cc(F)cc(F)c3)CCO2)C1 (stereo partly drawn) [Compound I1, methyl (1S,4R)-4-[[2-[(3,5-difluorophenyl)carbamoyl]oxetane-2-carbonyl]amino]cyclopent-2-ene-1-carboxylate]",pest or weed control at 250 g/ha,[8],90 to 100%
same,pest or weed control at 250 g/ha,Avena fatua (AVEFA); [14],90 to 100%
"COC(=O)C[C@H](C)NC(=O)C1(C(=O)Nc2cc(F)cc(F)c2)CCO1 (stereo partly drawn) [Compound I2, methyl (3S)-3-[[2-[(3,5-difluorophenyl)carbamoyl]oxetane-2-carbonyl]amino]butanoate]",pest or weed control at 500 g/ha,[8],90 to 100%
"COC(=O)[C@@H]1C=C[C@H](NC(=O)C2(C(=O)Nc3cc(Cl)cc(Cl)c3)CCO2)C1 (stereo partly drawn) [Compound I6, methyl (1S,4R)-4-[[2-[(3,5-dichlorophenyl)carbamoyl]oxetane-2-carbonyl]amino]cyclopent-2-ene-1-carboxylate]",herbicidal activity against ABUTH,[9],very good (a very good herbicidal activity is given at values of 90 to 100)
same,pest or weed control at 500 g/ha,[8],90 to 100%
"COC(=O)C[C@H](C)NC(=O)C1(C(=O)Nc2cc(Cl)cc(Cl)c2)CCO1 (stereo partly drawn) [Compound I7, methyl (3S)-3-[[2-[(3,5-dichlorophenyl)carbamoyl]oxetane-2-carbonyl]amino]butanoate]",pest or weed control at 500 g/ha,[8],90 to 100%
same,pest or weed control at 500 g/ha,Avena fatua (AVEFA); [14],90 to 100%
COC(=O)[C@@H]1CC[C@H](NC(=O)C2(C(=O)Nc3cc(Cl)cc(Cl)c3)CCCO2)C1 (stereo partly drawn) [Compound I15],herbicidal activity against ECHCG,[10],good (A good herbicidal activity is given at values of 70 to <90)
same,herbicidal activity against SETFA,Setaria faberi (SETFA); 0.500 kg/ha,good (A good herbicidal activity is given at values of 70 to <90)
"COC(=O)[C@@H]1C=C[C@H](NC(=O)C2(C(=O)Nc3cc(Cl)cc(Cl)c3)CCCO2)C1 (stereo partly drawn) [Compound I16, methyl (1S,4R)-4-[[2-[(3,5-dichlorophenyl)carbamoyl]tetrahydrofuran-2-carbonyl]amino]cyclopent-2-ene-1-carboxylate]",pest or weed control at 500 g/ha,[8],90 to 100%
"COC(=O)CCCNC(=O)C1(C(=O)Nc2cc(Cl)cc(Cl)c2)CCCO1 (stereo not drawn) [Compound I18, methyl 4-[[2-[(3,5-dichlorophenyl)carbamoyl]tetrahydrofuran-2-carbonyl]amino]butanoate]",pest or weed control at 500 g/ha,[8],90 to 100%
same,pest or weed control at 500 g/ha,Avena fatua (AVEFA); [14],70 to 90%
"COC(=O)[C@@H]1C=C[C@H](NC(=O)C2(C(=O)Nc3cc(Cl)cc(Cl)c3)C=CCO2)C1 (stereo partly drawn) [Compound I24, methyl (1S,4R)-4-[[5-[(3,5-dichlorophenyl)carbamoyl]-2H-furan-5-carbonyl]amino]cyclopent-2-ene-1-carboxylate]",herbicidal activity against ALOMY,[4]; 0.250 kg/ha,very good (a very good herbicidal activity is given at values of 90 to 100)
same,pest or weed control at 250 g/ha,Avena fatua (AVEFA); [14],90 to 100%
"COC(=O)[C@@H]1C=C[C@H](NC(=O)C2(C(=O)Nc3cc(Cl)cc(Cl)c3)C=CCO2)C1 (stereo partly drawn) [Compound I183, methyl (1S,4R)-4-[[5-[(3,5-dichlorophenyl)carbamoyl]-2H-furan-5-carbonyl]amino]cyclopent-2-ene-1-carboxylate]",pest or weed control at 125 g/ha,[8]; 0.125 kg/ha,70 to 90%
"COC(=O)[C@@H]1C=C[C@H](NC(=O)C2(C(=O)Nc3cc(Cl)cc(Cl)c3)C=CCO2)C1 (stereo partly drawn) [Compound I184, methyl (1S,4R)-4-[[5-[(3,5-dichlorophenyl)carbamoyl]-2H-furan-5-carbonyl]amino]cyclopent-2-ene-1-carboxylate]",pest or weed control at 250 g/ha,[8],90 to 100%
"COC(=O)C[C@H](C)NC(=O)C1(C(=O)Nc2cc(Cl)cc(Cl)c2)CCCO1 (stereo partly drawn) [I.17, methyl (3S)-3-[[2-[(3,5-dichlorophenyl)carbamoyl]tetrahydrofuran-2-carbonyl]amino]butanoate]",pest or weed control at 500 g/ha,[8],90 to 100%
same,pest or weed control at 500 g/ha,Avena fatua (AVEFA); [14],70 to 90%
"COC(=O)[C@@H]1C=C[C@H](NC(=O)C2(C(=O)Nc3cc(Cl)cc(Cl)c3)OCCS2)C1 (stereo partly drawn) [I.20, methyl (1S,4R)-4-[[2-[(3,5-dichlorophenyl)carbamoyl]-1,3-oxathiolane-2-carbonyl]amino]cyclopent-2-ene-1-carboxylate]",pest or weed control at 250 g/ha,[8],70 to 90%
same,pest or weed control at 250 g/ha,Avena fatua (AVEFA); [14],90 to 100%
"COC(=O)CC[C@H](C)NC(=O)C1(C(=O)Nc2cc(Cl)cc(Cl)c2)OCCS1 (stereo partly drawn) [I.21, methyl (4S)-4-[[2-[(3,5-dichlorophenyl)carbamoyl]-1,3-oxathiolane-2-carbonyl]amino]pentanoate]",pest or weed control at 250 g/ha,[8],90 to 100%
same,pest or weed control at 250 g/ha,Avena fatua (AVEFA); [14],90 to 100%
COC(=O)C[C@H](C)NC(=O)C1(C(=O)Nc2cc(Cl)cc(Cl)c2)COCO1 (stereo partly drawn) [I.22],herbicidal activity against ALOMY,[11],very good (a very good herbicidal activity is given at values of 90 to 100)
same,pest or weed control at 125 g/ha,"Avena fatua (AVEFA); Avena fatua, 0.125 kg/ha, scale from 0 to 100, read-out: herbicidal activity against AVEFA",90 to 100%
same,herbicidal activity against LOLMU,[12],very good (a very good herbicidal activity is given at values of 90 to 100)
"COC(=O)CCCNC(=O)C1(C(=O)Nc2cc(Cl)cc(Cl)c2)COCO1 (stereo not drawn) [I.23, methyl 4-[[4-[(3,5-dichlorophenyl)carbamoyl]-1,3-dioxolane-4-carbonyl]amino]butanoate]",pest or weed control at 500 g/ha,Avena fatua (AVEFA); [14],70 to 90%
C=C1CCOC1(C(=O)Nc1cc(Cl)cc(Cl)c1)C(=O)NC(C)CC(=O)OC (stereo not drawn) [I.122],herbicidal activity against AMARE,[13],good (A good herbicidal activity is given at values of 70 to <90)
O=C(O)CCCNC(=O)C1(C(=O)Nc2cc(F)cc(F)c2)CCO1 (stereo not drawn) [I.126],herbicidal activity against SETVI,Setaria viridis (SETVI) [3]; 0.0625 kg/ha,good (A good herbicidal activity is given at values of 70 to <90)
CS(=O)(=O)CCOC(=O)CCCNC(=O)C1(C(=O)Nc2cc(F)cc(F)c2)CCO1 (stereo not drawn) [I.130],herbicidal activity against AVEFA,"Avena fatua (AVEFA); 0.0625 kg/ha, scale from 0 to 100",good (A good herbicidal activity is given at values of 70 to <90)
CC(C)OC(=O)C1C=CC(NC(=O)C2(C(=O)Nc3cc(F)c(F)c(F)c3)CCO2)C1 (stereo not drawn) [I.133],herbicidal activity against ALOMY,[4]; 0.13128 kg/ha,very good (a very good herbicidal activity is given at values of 90 to 100)
same,herbicidal activity against LOLMU,[5]; 0.13128 kg/ha,very good (a very good herbicidal activity is given at values of 90 to 100)
same,herbicidal activity against SETFA,Setaria faberi (SETFA); 0.13128 kg/ha,very good (a very good herbicidal activity is given at values of 90 to 100)
CC(C)OC(=O)C1C=CC(NC(=O)C2(C(=O)Nc3cccc(OC(F)(F)F)c3)CCO2)C1 (stereo not drawn) [I.134],herbicidal activity against ECHCG,[1]; 0.0625 kg/ha,very good (a very good herbicidal activity is given at values of 90 to 100)
